pIC50: −log10 of the molar value.
System: 699152-130-R-J1-PDC complex spheroid viability
Experiment: Anticancer human tumor 699152-130-R-J1-PDC patient-derived pancreatic carcinoma cell line growth inhibition [POLQ]
Details: for pIC50: curve of first compound; for viability, T/C: stronger effect = lower value
How it was run: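 Patient-derived tumour cells were co-cultured with HUVEC and mesenchymal stem cells as multicellular spheroids at 37 °C. They were treated with POLQ inhibitors (novobiocin, ART-558, RP6685) alone or combined with other agents. Top concentrations were at or near clinical Cmax (otherwise 10 microM; SN-38 at 1 microM), decreasing in half-log steps.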

[1] = second compound 0.0316 µM, first compound 0.0316 µM
[2] = second compound 0.0316 µM, first compound 0.1 µM
[3] = second compound 0.0316 µM, first compound 0.316 µM
[4] = second compound 0.0316 µM, first compound 1 µM
[5] = second compound 0.0316 µM, first compound 3.16 µM
[6] = second compound 0.0316 µM, first compound 10 µM
[7] = second compound 0.1 µM, first compound 0.0316 µM
[8] = second compound 0.1 µM, first compound 0.1 µM
[9] = second compound 0.1 µM, first compound 0.316 µM
[10] = second compound 0.1 µM, first compound 1 µM
[11] = second compound 0.1 µM, first compound 3.16 µM
[12] = second compound 0.1 µM, first compound 10 µM
[13] = second compound 0.316 µM, first compound 0.0316 µM
[14] = second compound 0.316 µM, first compound 0.1 µM
[15] = second compound 0.316 µM, first compound 0.316 µM
[16] = second compound 0.316 µM, first compound 1 µM
[17] = second compound 0.316 µM, first compound 3.16 µM
[18] = second compound 0.316 µM, first compound 10 µM
[19] = second compound 1 µM, first compound 0.0316 µM
[20] = second compound 1 µM, first compound 0.1 µM
[21] = second compound 1 µM, first compound 0.316 µM
[22] = second compound 1 µM, first compound 1 µM
[23] = second compound 1 µM, first compound 3.16 µM
[24] = second compound 1 µM, first compound 10 µM
[25] = second compound 3.16 µM, first compound 0.0316 µM
[26] = second compound 3.16 µM, first compound 0.1 µM
[27] = second compound 3.16 µM, first compound 0.316 µM
[28] = second compound 3.16 µM, first compound 1 µM
[29] = second compound 3.16 µM, first compound 3.16 µM
[30] = second compound 3.16 µM, first compound 10 µM
[31] = second compound 10 µM, first compound 0.0316 µM
[32] = second compound 10 µM, first compound 0.1 µM
[33] = second compound 10 µM, first compound 0.316 µM
[34] = second compound 10 µM, first compound 1 µM
[35] = second compound 10 µM, first compound 3.16 µM
[36] = second compound 10 µM, first compound 10 µM
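Note: spheroids exposed to agents for 7 days before viability reading.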
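Throughout, for viability, T/C: percent of DMSO vehicle control viability so 100% = vehicle and 0% = no viable signal.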

## COc1ccc([C@@H](O)c2cc(-c3ncnc4cc(N5CCOCC5)ccc34)c(F)cc2Cl)nn1 + Cc1cccc(N(C)C(=O)C2C(O)CCN2c2nc(C)cc(C(F)(F)F)c2C#N)c1
Second compound 0.0316 µM
  pIC50: 5.39
Second compound 0.1 µM
  pIC50: 5.44
Second compound 0.316 µM
  pIC50: 5.38
Second compound 1 µM
  pIC50: 5.45
Second compound 3.16 µM
  pIC50: 5.47
Second compound 10 µM
  pIC50: 5.35
[1]
  viability, T/C: 96.5%
[2]
  viability, T/C: 94.2%
[3]
  viability, T/C: 98.3%
[4]
  viability, T/C: 78.9%
[5]
  viability, T/C: 58.8%
[6]
  viability, T/C: 22.6%
[7]
  viability, T/C: 101%
[8]
  viability, T/C: 106%
[9]
  viability, T/C: 87.7%
[10]
  viability, T/C: 85.3%
[11]
  viability, T/C: 52.5%
[12]
  viability, T/C: 22.9%
[13]
  viability, T/C: 106%
[14]
  viability, T/C: 88.9%
[15]
  viability, T/C: 90.4%
[16]
  viability, T/C: 84%
[17]
  viability, T/C: 56.9%
[18]
  viability, T/C: 22.6%
[19]
  viability, T/C: 109%
[20]
  viability, T/C: 95.8%
[21]
  viability, T/C: 90.1%
[22]
  viability, T/C: 78.9%
[23]
  viability, T/C: 51.4%
[24]
  viability, T/C: 21.2%
[25]
  viability, T/C: 111%
[26]
  viability, T/C: 94.7%
[27]
  viability, T/C: 83.6%
[28]
  viability, T/C: 75.2%
[29]
  viability, T/C: 51%
[30]
  viability, T/C: 27.4%
[31]
  viability, T/C: 101%
[32]
  viability, T/C: 100%
[33]
  viability, T/C: 88.8%
[34]
  viability, T/C: 74.1%
[35]
  viability, T/C: 60.2%
[36]
  viability, T/C: 30.9%

## COc1cc2cc(C(=O)CCC(=O)O)sc2cc1OC + Cc1cccc(N(C)C(=O)C2C(O)CCN2c2nc(C)cc(C(F)(F)F)c2C#N)c1
Second compound 0.0316 µM
  pIC50: < 5.00
Second compound 0.1 µM
  pIC50: < 5.00
Second compound 0.316 µM
  pIC50: < 5.00
Second compound 1 µM
  pIC50: < 5.00
Second compound 3.16 µM
  pIC50: < 5.00
Second compound 10 µM
  pIC50: < 5.00
[1]
  viability, T/C: 99.4%
[2]
  viability, T/C: 91.8%
[3]
  viability, T/C: 92.6%
[4]
  viability, T/C: 98.7%
[5]
  viability, T/C: 110%
[6]
  viability, T/C: 95.3%
[7]
  viability, T/C: 113%
[8]
  viability, T/C: 108%
[9]
  viability, T/C: 106%
[10]
  viability, T/C: 90.3%
[11]
  viability, T/C: 121%
[12]
  viability, T/C: 93.2%
[13]
  viability, T/C: 93%
[14]
  viability, T/C: 105%
[15]
  viability, T/C: 92.5%
[16]
  viability, T/C: 102%
[17]
  viability, T/C: 114%
[18]
  viability, T/C: 94.9%
[19]
  viability, T/C: 94.8%
[20]
  viability, T/C: 99.4%
[21]
  viability, T/C: 92.1%
[22]
  viability, T/C: 106%
[23]
  viability, T/C: 107%
[24]
  viability, T/C: 107%
[25]
  viability, T/C: 102%
[26]
  viability, T/C: 97.8%
[27]
  viability, T/C: 104%
[28]
  viability, T/C: 105%
[29]
  viability, T/C: 89.1%
[30]
  viability, T/C: 93.3%
[31]
  viability, T/C: 92.2%
[32]
  viability, T/C: 102%
[33]
  viability, T/C: 105%
[34]
  viability, T/C: 96%
[35]
  viability, T/C: 98.9%
[36]
  viability, T/C: 103%

## CC(C)n1c(=O)n(C)c2cnc3cc(F)c(-c4ccc(OCCCN5CCCCC5)nc4)cc3c21 + Cc1cccc(N(C)C(=O)C2C(O)CCN2c2nc(C)cc(C(F)(F)F)c2C#N)c1
Second compound 0.0316 µM
  pIC50: < 5.00
Second compound 0.1 µM
  pIC50: < 5.00
Second compound 0.316 µM
  pIC50: < 5.00
Second compound 1 µM
  pIC50: < 5.00
Second compound 3.16 µM
  pIC50: < 5.00
Second compound 10 µM
  pIC50: < 5.00
[1]
  viability, T/C: 94.9%
[2]
  viability, T/C: 98.5%
[3]
  viability, T/C: 100%
[4]
  viability, T/C: 110%
[5]
  viability, T/C: 107%
[6]
  viability, T/C: 83.2%
[7]
  viability, T/C: 97.3%
[8]
  viability, T/C: 101%
[9]
  viability, T/C: 112%
[10]
  viability, T/C: 109%
[11]
  viability, T/C: 104%
[12]
  viability, T/C: 98.3%
[13]
  viability, T/C: 111%
[14]
  viability, T/C: 94.2%
[15]
  viability, T/C: 104%
[16]
  viability, T/C: 118%
[17]
  viability, T/C: 114%
[18]
  viability, T/C: 94.8%
[19]
  viability, T/C: 113%
[20]
  viability, T/C: 116%
[21]
  viability, T/C: 98.7%
[22]
  viability, T/C: 121%
[23]
  viability, T/C: 113%
[24]
  viability, T/C: 87.3%
[25]
  viability, T/C: 104%
[26]
  viability, T/C: 116%
[27]
  viability, T/C: 103%
[28]
  viability, T/C: 104%
[29]
  viability, T/C: 112%
[30]
  viability, T/C: 78.7%
[31]
  viability, T/C: 98.1%
[32]
  viability, T/C: 84.4%
[33]
  viability, T/C: 123%
[34]
  viability, T/C: 111%
[35]
  viability, T/C: 106%
[36]
  viability, T/C: 84.7%

From PubChem BioAssay AID1963835 (Molecular Pharmacology Branch, DTP, NCI, 2024)
